Patent US11713341B1, “Antimicrobial NCR13 variant peptides” (Vestaron Corporation, priority 2022, dated 2023)
Where a SMILES comes first, the peptide text is derived from it.

Test system: Botrytis cinerea
Experiment: Antimicrobial bioassay (Botrytis cinerea): growth inhibition by OD600
Type: cell-based
Settings: for anti-Botrytis activities relative to NCR13a: Botrytis cinerea growth, comparison with NCR13a; for Activity ratio to NCR13a: anti-Botrytis cinerea activity (IC50) relative to comparator NCR13a
Protocol: The antimicrobial effect of the NCR13 variant peptides (NVPs) of the present disclosure were evaluated against the fungal species, Botrytis cinerea. […] The growth of Botrytis cinerea was then assessed via OD600 nm after incubation with a given NVP at room temperature after 96 hours. The IC50 of each peptide analyzed is shown in ppm.
The antimicrobial effect of the NCR13 variant peptides (NVPs) of the present disclosure were evaluated against the fungal species, Botrytis cinerea. […] The growth of Botrytis cinerea was then assessed via OD600 nm after incubation with a given NVP at room temperature after 96 hours.
The NVPs assessed were as follows: NVPM3 (+L) (SEQ ID NO: 5); NVPM5 (+M) (SEQ ID NO: 7); NVPM6 (+F) (SEQ ID NO: 8); NVPM7 (+W) (SEQ ID NO: 9); NVPM9 (+S) (SEQ ID NO: 11); NVPM11 (+Y) (SEQ ID NO: 13); NVPM14 (+D) (SEQ ID NO: 16); and NVPM15 (+E) (SEQ ID NO: 17).
NVPs having an amino acid sequence of SEQ ID NOs: 5, 7, 8, 9, 11, 13, 16, and 17 were generated as described above in Example 1. The peptide, NCR13a, having an amino acid sequence of: […] (SEQ ID NO: 2) was selected as a comparator peptide, with which the antifungal activity of the foregoing NVPs was compared.
The fungal species was Botrytis cinerea was cultured in potato dextrose agar plates. Fungal spores were collected from the agar plates and suspended into de-ionized water, followed by enumeration in a Petroff-Hausser counting chamber (VWR).
The 96-well plates were incubated at room temperature for 96 hours without shaking. The OD600 of the culture plate was determined using SpectraMax plate reader. Relative OD600 was determined by normalizing cell growth to control wells containing neither NVPs nor NCR13a. The OD600 was used to determine IC50.

Row | SMILES | anti-Botrytis activities relative to NCR13a | Activity ratio to NCR13a | IC50 (ppm) (amount required to achieve IC50 in Botrytis cinerea cells, growth by OD600 after 96 hours at room temperature in synthetic fungal medium, 2-fold serial dilution)
1 | CC[C@H](C)[C@H](NC(=O)[C@H](CS)NC(=O)[C@H](CCCCN)NC(=O)[C@@H]1CCCN1C(=O)[C@@H](NC(=O)[C@H](CCCCN)NC(=O)[C@@H]1CCCN1C(=O)[C@H](CCCCN)NC(=O)[C@H](CCCNC(=N)N)NC(=O)[C@H](CS)NC(=O)[C@H](C)NC(=O)[C@H](Cc1ccccc1)NC(=O)[C@H](CCCCN)NC(=O)[C@H](CCCCN)NC(=O)[C@H](CS)NC(=O)[C@H](CC(=O)O)NC(=O)[C@H](CCCCN)NC(=O)[C@H](CC(=O)O)NC(=O)[C@H](CO)NC(=O)[C@H](CCC(N)=O)NC(=O)[C@H](CS)NC(=O)[C@@H]1CCCN1C(=O)[C@H](CCCCN)NC(=O)[C@@H](NC(=O)[C@@H](N)Cc1ccccc1)[C@@H](C)O)C(C)C)C(=O)N[C@@H](CC(N)=O)C(=O)NCC(=O)N[C@@H](Cc1ccccc1)C(=O)N[C@@H](CS)C(=O)N[C@@H](CCCCN)C(=O)N[C@@H](CS)C(=O)N[C@H](C(=O)N[C@@H](CCCNC(=N)N)C(=O)O)C(C)C [NVPM6] (H-FTKPCQSDKDCKKFACRKPKVPKCINGFCKCVR-OH; N-terminus and C-terminus assumed) | improved anti-Botrytis activities relative to NCR13a | 1.82 | 
2 | CC[C@H](C)[C@H](NC(=O)[C@H](CS)NC(=O)[C@H](CCCCN)NC(=O)[C@@H]1CCCN1C(=O)[C@@H](NC(=O)[C@H](CCCCN)NC(=O)[C@@H]1CCCN1C(=O)[C@H](CCCCN)NC(=O)[C@H](CCCNC(=N)N)NC(=O)[C@H](CS)NC(=O)[C@H](C)NC(=O)[C@H](Cc1ccccc1)NC(=O)[C@H](CCCCN)NC(=O)[C@H](CCCCN)NC(=O)[C@H](CS)NC(=O)[C@H](CC(=O)O)NC(=O)[C@H](CCCCN)NC(=O)[C@H](CC(=O)O)NC(=O)[C@H](CO)NC(=O)[C@H](CCC(N)=O)NC(=O)[C@H](CS)NC(=O)[C@@H]1CCCN1C(=O)[C@H](CCCCN)NC(=O)[C@@H](NC(=O)[C@@H](N)CC(=O)O)[C@@H](C)O)C(C)C)C(=O)N[C@@H](CC(N)=O)C(=O)NCC(=O)N[C@@H](Cc1ccccc1)C(=O)N[C@@H](CS)C(=O)N[C@@H](CCCCN)C(=O)N[C@@H](CS)C(=O)N[C@H](C(=O)N[C@@H](CCCNC(=N)N)C(=O)O)C(C)C [NVPM14] (H-DTKPCQSDKDCKKFACRKPKVPKCINGFCKCVR-OH; N-terminus and C-terminus assumed) | improved anti-Botrytis activities relative to NCR13a | 1.61 | 
3 | CC[C@H](C)[C@H](NC(=O)[C@H](CS)NC(=O)[C@H](CCCCN)NC(=O)[C@@H]1CCCN1C(=O)[C@@H](NC(=O)[C@H](CCCCN)NC(=O)[C@@H]1CCCN1C(=O)[C@H](CCCCN)NC(=O)[C@H](CCCNC(=N)N)NC(=O)[C@H](CS)NC(=O)[C@H](C)NC(=O)[C@H](Cc1ccccc1)NC(=O)[C@H](CCCCN)NC(=O)[C@H](CCCCN)NC(=O)[C@H](CS)NC(=O)[C@H](CC(=O)O)NC(=O)[C@H](CCCCN)NC(=O)[C@H](CC(=O)O)NC(=O)[C@H](CO)NC(=O)[C@H](CCC(N)=O)NC(=O)[C@H](CS)NC(=O)[C@@H]1CCCN1C(=O)[C@H](CCCCN)NC(=O)[C@@H](NC(=O)[C@@H](N)CO)[C@@H](C)O)C(C)C)C(=O)N[C@@H](CC(N)=O)C(=O)NCC(=O)N[C@@H](Cc1ccccc1)C(=O)N[C@@H](CS)C(=O)N[C@@H](CCCCN)C(=O)N[C@@H](CS)C(=O)N[C@H](C(=O)N[C@@H](CCCNC(=N)N)C(=O)O)C(C)C [NVPM9] (H-STKPCQSDKDCKKFACRKPKVPKCINGFCKCVR-OH; N-terminus and C-terminus assumed) | improved anti-Botrytis activities relative to NCR13a | 1.66 | 
4 | CC[C@H](C)[C@H](NC(=O)[C@H](CS)NC(=O)[C@H](CCCCN)NC(=O)[C@@H]1CCCN1C(=O)[C@@H](NC(=O)[C@H](CCCCN)NC(=O)[C@@H]1CCCN1C(=O)[C@H](CCCCN)NC(=O)[C@H](CCCNC(=N)N)NC(=O)[C@H](CS)NC(=O)[C@H](C)NC(=O)[C@H](Cc1ccccc1)NC(=O)[C@H](CCCCN)NC(=O)[C@H](CCCCN)NC(=O)[C@H](CS)NC(=O)[C@H](CC(=O)O)NC(=O)[C@H](CCCCN)NC(=O)[C@H](CC(=O)O)NC(=O)[C@H](CO)NC(=O)[C@H](CCC(N)=O)NC(=O)[C@H](CS)NC(=O)[C@@H]1CCCN1C(=O)[C@H](CCCCN)NC(=O)[C@@H](NC(=O)CN)[C@@H](C)O)C(C)C)C(=O)N[C@@H](CC(N)=O)C(=O)NCC(=O)N[C@@H](Cc1ccccc1)C(=O)N[C@@H](CS)C(=O)N[C@@H](CCCCN)C(=O)N[C@@H](CS)C(=O)N[C@H](C(=O)N[C@@H](CCCNC(=N)N)C(=O)O)C(C)C [NCR13a, reference compound] (H-GTKPCQSDKDCKKFACRKPKVPKCINGFCKCVR-OH; N-terminus and C-terminus assumed) |  | 1 | 2.36 ppm
5 | CC[C@H](C)[C@H](NC(=O)[C@H](CS)NC(=O)[C@H](CCCCN)NC(=O)[C@@H]1CCCN1C(=O)[C@@H](NC(=O)[C@H](CCCCN)NC(=O)[C@@H]1CCCN1C(=O)[C@H](CCCCN)NC(=O)[C@H](CCCNC(=N)N)NC(=O)[C@H](CS)NC(=O)[C@H](C)NC(=O)[C@H](Cc1ccccc1)NC(=O)[C@H](CCCCN)NC(=O)[C@H](CCCCN)NC(=O)[C@H](CS)NC(=O)[C@H](CC(=O)O)NC(=O)[C@H](CCCCN)NC(=O)[C@H](CC(=O)O)NC(=O)[C@H](CO)NC(=O)[C@H](CCC(N)=O)NC(=O)[C@H](CS)NC(=O)[C@@H]1CCCN1C(=O)[C@H](CCCCN)NC(=O)[C@@H](NC(=O)[C@@H](N)Cc1c[nH]c2ccccc12)[C@@H](C)O)C(C)C)C(=O)N[C@@H](CC(N)=O)C(=O)NCC(=O)N[C@@H](Cc1ccccc1)C(=O)N[C@@H](CS)C(=O)N[C@@H](CCCCN)C(=O)N[C@@H](CS)C(=O)N[C@H](C(=O)N[C@@H](CCCNC(=N)N)C(=O)O)C(C)C [NVPM7] (H-WTKPCQSDKDCKKFACRKPKVPKCINGFCKCVR-OH; N-terminus and C-terminus assumed) | improved anti-Botrytis activities relative to NCR13a | 2.71 | 
6 | CC[C@H](C)[C@H](NC(=O)[C@H](CS)NC(=O)[C@H](CCCCN)NC(=O)[C@@H]1CCCN1C(=O)[C@@H](NC(=O)[C@H](CCCCN)NC(=O)[C@@H]1CCCN1C(=O)[C@H](CCCCN)NC(=O)[C@H](CCCNC(=N)N)NC(=O)[C@H](CS)NC(=O)[C@H](C)NC(=O)[C@H](Cc1ccccc1)NC(=O)[C@H](CCCCN)NC(=O)[C@H](CCCCN)NC(=O)[C@H](CS)NC(=O)[C@H](CC(=O)O)NC(=O)[C@H](CCCCN)NC(=O)[C@H](CC(=O)O)NC(=O)[C@H](CO)NC(=O)[C@H](CCC(N)=O)NC(=O)[C@H](CS)NC(=O)[C@@H]1CCCN1C(=O)[C@H](CCCCN)NC(=O)[C@@H](NC(=O)[C@H](C)N)[C@@H](C)O)C(C)C)C(=O)N[C@@H](CC(N)=O)C(=O)NCC(=O)N[C@@H](Cc1ccccc1)C(=O)N[C@@H](CS)C(=O)N[C@@H](CCCCN)C(=O)N[C@@H](CS)C(=O)N[C@H](C(=O)N[C@@H](CCCNC(=N)N)C(=O)O)C(C)C [NVPM1] (H-ATKPCQSDKDCKKFACRKPKVPKCINGFCKCVR-OH; N-terminus and C-terminus assumed) |  | 2.43 | 
